Where two headings read alike, the source gives them in different places.
Experiments:
[1] = XTR5 vs Texanol coating in Raycryl 1001 acrylic emulsion polymer; conditions: Raycryl 1001 coating
Text: (§1) Bis(1-butoxypropan-2-yl) carbonate (TreviSol, XTR5) was used as a direct replacement for other typical coalescents, such as, Texanol™, as follows.

[2] = XTR5 vs Texanol paint in Raycryl 1526 acrylic emulsion polymer; conditions: Raycryl 1526 paint
Text: as §1

[3] = XTR5 vs Texanol coating in EPS 2708 acrylic emulsion polymer; conditions: EPS 2708 coating
Text: as §1

[4] = Physical/chemical properties of XTR5

Compound | Specific Gravity [1] [g/cm3] | VOC (Without Water) [1] [g/L] | Viscosity [1] [KU] | Volume Solid % [1] [%] | Weight Solid % [1] [%] | Specific Gravity [2] [g/cm3] | VOC (Without Water) [2] [g/L] | Viscosity [2] [KU] | Volume Solid % [2] [%] | Weight Solid % [2] [%] | Specific Gravity [3] [g/cm3] | VOC (Without Water) [3] [g/L] | Viscosity [3] [KU] | Volume Solid % [3] [%] | Weight Solid % [3] [%] | also measured
CC(C)C(=O)OCC(C)(C)C(O)C(C)C (centres unmarked) [Texanol, 2-methyl-, 3-hydroxy-2,2,4-trimethylpentyl ester, reference compound] | 1.32 | 54.6 | 95 | 41.1 | 54.6 | 1.25 | 95.0 | 90 | 40.91 | 51.91 | 1.33 | 103.3 | 95 | 41.0 | 54.5 | 
CCCCOCC(C)OC(=O)OC(C)COCCCC (centres unmarked) [XTR5, bis(1-butoxypropan-2-yl) carbonate] | 1.32 | 1.5 | 95 | 41.1 | 54.6 | 1.25 | 45.0 | 90 | 40.91 | 51.91 | 1.33 | 59.6 | 95 | 41.0 | 54.5 | Clarity [4]: Clear; Colour (Alpha, max) [4]: 10; Density [4]: (7.94 lb/gal); Evaporation Rate [4]: Slow and Close to Texanol; Partial Coefficient (Range) [4]: 0.7-2.0; Texanol Solubility [4]: Soluble; VOC [4]: 0 g/L; Volatility (%) [4]: 100%; Water Solubility [4]: Not Soluble; Specific Gravity ([4]; @15.5°): 0.956; Density ([4]; @ 20° C.): 0.951 g/mL; Solubility in H2O ([4]; @ 25° C.): Insoluble; Vapour Pressure ([4]; @ 25° C.): 0.005 mm Hg; Viscosity ([4]; @ 25° C.): 0.58 cP; Vapour Density (mm Hg Air = 1) ([4]; Air = 1): 0.95; TGA Weight Loss ([4]; Ambient 115-240° C.): 97.94%; Evaporation Rate (n-Butyl Acetate = 1) ([4]; n-Butyl Acetate = 1): 0.0004

Source: patent US11708500B2, “Solvent compounds for use as coalescents” (TBF ENVIRONMENTAL TECHNOLOGY INC., priority 2017, dated 2023)
